Results taken from patent US6737383B1, “Herbicidal oxadiazolidines” (priority 1999, dated 2004).

Legend:
[1] = test system: bedstraw; test: Test B pre/postemergence bedstraw; format: in vivo, Galium aparine
How it was run: (§1)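 Response is a visual 0-to-10 score relative to untreated plants, where 0 means no effect and 10 means complete control, taken twelve to sixteen days after application. Treatments went onto soil at planting and onto foliage of 1- to 4-leaf plants, using a surfactant-containing non-phytotoxic solvent.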

[2] = test system: surinam grass; test: Test B pre/postemergence surinam grass; format: in vivo, Brachiaria decumbens
How it was run: as §1

[3] = test system: cocklebur; test: Test B pre/postemergence cocklebur; format: in vivo, Xanthium strumarium
How it was run: as §1

[4] = test system: wild oat; test: Test B pre/postemergence wild oat; format: in vivo, Avena fatua; conditions: for Plant response rating, Wild oats: Rate 250 g/ha
How it was run: as §1

[5] = test system: bamyardgrass; test: Test B flood test barnyardgrass; format: in vivo, Echinochloa crus-galli
How it was run: (§2)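 Each value is a visual injury score relative to controls, with 10 meaning complete control and 0 no effect. Evaluation took place twelve to sixteen days after the 2-leaf-stage plants were treated and kept in the greenhouse.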

[6] = test system: crabgrass; test: Test B pre/postemergence crabgrass; format: in vivo, Digitaria sanguinalis
How it was run: as §1

[7] = test system: sugar beet; test: Test B pre/postemergence sugar beet; format: in vivo, Beta vulgaris; conditions: for Plant response rating, Sugarbeets: Rate 250 g/ha
How it was run: as §1

[8] = test system: velvetleaf; test: Test B pre/postemergence velvetleaf; format: in vivo, Abutilon theophrasti; conditions: for Plant response rating, Velvetleaf: Rate 250 g/ha
How it was run: as §1

[9] = test system: blackgrass; test: Test B pre/postemergence blackgrass; format: in vivo, Alopecurus myosuroides
How it was run: as §1

[10] = test system: rice; test: Test B flood test rice; format: in vivo, Oryza sativa
How it was run: as §2

[11] = test system: rape; test: Test B pre/postemergence rape; format: in vivo, Brassica napus
How it was run: as §1

[12] = test system: smallflower flatsedge; test: Test B flood test smallflower flatsedge; format: in vivo, Cyperus difformis
How it was run: as §2

[13] = test system: soybean; test: Test B pre/postemergence soybean; format: in vivo, Glycine max
How it was run: as §1

[14] = test system: purple nutsedge; test: Test B pre/postemergence purple nutsedge; format: in vivo, Cyperus rotundus
How it was run: as §1

[15] = test system: duck salad; test: Test B flood test duck salad; format: in vivo, Heteranthera limosa
How it was run: as §2

[16] = test system: corn; test: Test B pre/postemergence corn; format: in vivo, Zea mays
How it was run: as §1

[17] = test system: wheat; test: Test B pre/postemergence wheat; format: in vivo, Triticum aestivum; conditions: for Plant response rating, Wheat: Rate 250 g/ha
How it was run: as §1

[18] = Preemergence, Rate 62 g/ha, scale 0 to 10 (0 no effect, 10 complete control)
[19] = Preemergence, Rate 125 g/ha, scale 0 to 10 (0 no effect, 10 complete control)
[20] = Preemergence, Rate 250 g/ha, scale of 0 to 10 where 0 is no effect and 10 is complete control
[21] = Preemergence, Rate 500 g/ha, scale 0 to 10 (0 no effect, 10 complete control)
[22] = Rate 500 g/ha, Postemergence, scale 0 to 10, 0 no effect, 10 complete control
[23] = Postemergence, Rate 62 g/ha, scale 0 to 10, 0 is no effect, 10 is complete control
[24] = Postemergence, Rate 250 g/ha, scale 0 to 10, 0 no effect, 10 complete control
[25] = Postemergence, Rate 125 g/ha, scale of 0 to 10 where 0 is no effect and 10 is complete control
[26] = Rate 62 g/ha, Postemergence, scale of 0 to 10 where 0 is no effect and 10 is complete control
[27] = Preemergence, Rate 125 g/ha, 0 is no effect, 10 is complete control
[28] = Preemergence, scale of 0 to 10 where 0 is no effect and 10 is complete control
[29] = Postemergence, scale 0 to 10, 0 is no effect, 10 is complete control
[30] = Rate 500 g/ha, listed under Postemergence (flood test species), scale 0 to 10, 0 no effect, 10 complete control
[31] = flood test, listed under Postemergence, Rate 250 g/ha, scale 0 to 10, 0 no effect, 10 complete control
[32] = Postemergence (flood test species), Rate 125 g/ha, scale of 0 to 10 where 0 is no effect and 10 is complete control
[33] = Rate 62 g/ha, Postemergence section, flood test species, scale of 0 to 10 where 0 is no effect and 10 is complete control
[34] = Rate 250 g/ha, Postemergence (flood test), scale 0 to 10, 0 is no effect, 10 is complete control

Cc1nn(C)c(C)c1-n1c(=O)on(C(=O)N(c2ccccc2)C(C)C)c1=O [Compound 120]
6: Plant response rating, B. signalgrass [2, 20] | Plant response rating, Wild oats [4, 28] | Crabgrass plant response rating [6, 18] | Plant response rating, Crabgrass [6, 19] | Velvetleaf plant response rating [8, 22] | Blackgrass plant response rating [9, 24] | Soybean plant response rating [13, 22] | Wheat plant response rating [17, 21]
1: Cocklebur plant response rating [3, 25] | Cocklebur plant response rating [3, 26]
2: Bedstraw plant response rating [1, 22] | Wild oats plant response rating (0 to 10 scale) [4, 27] | Wild oats plant response rating [4, 22] | Sugarbeets plant response rating (0 to 10 scale) [7, 27] | Plant response rating, Velvetleaf [8, 29] | Plant response rating, Rice [10, 34] | Soybean plant response rating [13, 26] | Corn plant response rating [16, 24] | Plant response rating, Wheat [17, 28]
0: Bedstraw plant response rating [1, 18] | Plant response rating, Bedstraw [1, 19] | Plant response rating, Bedstraw [1, 20] | Bedstraw plant response rating [1, 21] | B. signalgrass plant response rating [2, 23] | B. signalgrass plant response rating [2, 18] | Cocklebur plant response rating [3, 18] | Plant response rating, Cocklebur [3, 19] | Plant response rating, Cocklebur [3, 20] | Cocklebur plant response rating [3, 21] | Wild oats plant response rating [4, 25] | Wild oats plant response rating [4, 18] | Wild oats plant response rating [4, 26] | Plant response rating, Wild oats [4, 29] | Barnyardgrass plant response rating [5, 23] | Barnyardgrass plant response rating ([5]; Rate 125 g/ha, Postemergence section (flood test species), scale 0 to 10, 0 no effect, 10 complete control) | Barnyardgrass plant response rating [5, 30] | Barnyardgrass plant response rating [5, 31] | Sugarbeets plant response rating [7, 25] | Sugarbeets plant response rating [7, 18] | Sugarbeets plant response rating [7, 26] | Plant response rating, Sugarbeets [7, 29] | Sugarbeets plant response rating [7, 22] | Velvetleaf plant response rating [8, 25] | Velvetleaf plant response rating [8, 18] | Velvetleaf plant response rating (0 to 10 scale) [8, 27] | Plant response rating, Velvetleaf [8, 28] | Velvetleaf plant response rating [8, 26] | Blackgrass plant response rating [9, 18] | Blackgrass plant response rating [9, 26] | Rice plant response rating [10, 32] | Rice plant response rating [10, 33] | Rape plant response rating [11, 25] | Rape plant response rating [11, 24] | Rape plant response rating [11, 18] | Plant response rating, Rape [11, 19] | Plant response rating, Rape [11, 20] | Rape plant response rating [11, 26] | Rape plant response rating [11, 22] | S. Flatsedge plant response rating [12, 32] | S. Flatsedge plant response rating [12, 33] | Plant response rating, S. Flatsedge [12, 34] | S. Flatsedge plant response rating [12, 30] | Soybean plant response rating [13, 18] | Plant response rating, Soybean [13, 19] | Plant response rating, Soybean [13, 20] | Soybean plant response rating [13, 21] | Nutsedge plant response rating [14, 25] | Nutsedge plant response rating [14, 24] | Nutsedge plant response rating [14, 18] | Plant response rating, Nutsedge [14, 19] | Plant response rating, Nutsedge [14, 20] | Nutsedge plant response rating [14, 21] | Nutsedge plant response rating [14, 26] | Ducksalad plant response rating [15, 32] | Ducksalad plant response rating [15, 33] | Ducksalad plant response rating [15, 30] | Ducksalad plant response rating [15, 31] | Corn plant response rating [16, 25] | Corn plant response rating [16, 18] | Plant response rating, Corn [16, 19] | Plant response rating, Corn [16, 20] | Corn plant response rating [16, 21] | Corn plant response rating [16, 26] | Wheat plant response rating [17, 25] | Wheat plant response rating [17, 18] | Wheat plant response rating (0 to 10 scale) [17, 27] | Wheat plant response rating [17, 26] | Plant response rating, Wheat [17, 29]
7: B. signalgrass plant response rating [2, 24] | Crabgrass plant response rating [6, 25] | Sugarbeets plant response rating [7, 21] | Plant response rating, Blackgrass [9, 20]
8: B. signalgrass plant response rating [2, 21] | B. signalgrass plant response rating ([2]; Rate 500 g/ha, Postemergence, scale of 0 to 10 where 0 is no effect and 10 is complete control) | Wild oats plant response rating [4, 21] | Blackgrass plant response rating [9, 21] | Blackgrass plant response rating [9, 22]
4: B. signalgrass plant response rating ([2]; Rate 125 g/ha, Postemergence, scale 0 to 10, 0 no effect, 10 complete control) | Cocklebur plant response rating [3, 22] | Plant response rating, Sugarbeets [7, 28] | Blackgrass plant response rating [9, 25] | Plant response rating, Soybean ([13]; Rate 250 g/ha, Postemergence, scale 0 to 10, 0 is no effect, 10 is complete control) | Corn plant response rating [16, 22] | Wheat plant response rating [17, 22]
3: Plant response rating, B. signalgrass [2, 19] | Cocklebur plant response rating [3, 24] | Velvetleaf plant response rating [8, 21] | Plant response rating, Blackgrass [9, 19] | Rice plant response rating [10, 30] | Rape plant response rating [11, 21] | Soybean plant response rating [13, 25]
5: Crabgrass plant response rating [6, 26]
9: Crabgrass plant response rating [6, 24] | Plant response rating, Crabgrass [6, 20] | Crabgrass plant response rating [6, 21] | Crabgrass plant response rating [6, 22]
